Experimental data as given in patent US10106556B2, “Heterocyclic compound” (TAKEDA PHARMACEUTICAL COMPANY LIMITED, priority 2015, dated 2018).

Target: T1, His-hMAGL (recombinant polyhistidine tagged human MAGL protein) (Homo sapiens, UniProt Q99685)
T1 construct: made in house; host or cells: E. coli BL21(DE3)
T1 sequence (Q99685 1-303): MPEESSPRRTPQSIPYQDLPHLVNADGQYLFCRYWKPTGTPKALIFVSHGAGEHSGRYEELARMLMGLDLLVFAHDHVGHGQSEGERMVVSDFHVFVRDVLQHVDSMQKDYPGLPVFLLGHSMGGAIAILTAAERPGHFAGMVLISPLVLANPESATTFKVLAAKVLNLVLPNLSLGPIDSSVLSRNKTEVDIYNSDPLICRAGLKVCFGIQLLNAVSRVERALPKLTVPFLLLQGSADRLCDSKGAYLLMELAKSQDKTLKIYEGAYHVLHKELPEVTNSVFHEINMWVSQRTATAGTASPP
Assay: Measurement of MAGL inhibitory activity (arachidonic acid production from 2-arachidonylglycerol, RapidFire-mass spectrometry)
Type: biochemical
Conditions: MAGL inhibitory rate at 10 μM test compound, 60 min preincubation with His-hMAGL, 2-arachidonylglycerol substrate, 10 min reaction at room temperature
Outline: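 Inhibition (%) was derived from arachidonic acid levels relative to enzyme-free and compound-free groups. Product was measured by online C4 solid-phase extraction and triple-quadrupole MS in negative SRM mode, corrected by arachidonic acid-d8 (3 μM in the acetonitrile added). Substrate was 2-arachidonylglycerol; enzyme was His-tagged recombinant human MAGL.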

Compound	inhibition at 10 µM [%]	% inhibition (10 μM) (10 µM) [%]
COc1cc2c(cc1C(=O)N1CCC(COc3ccc(F)cc3Cl)CC1)NC(=O)CO2 [Example 97, 6-((4-((2-chloro-4-fluorophenoxy)methyl)piperidin-1-yl)carbonyl)-7-methoxy-2H-1,4-benzoxazin-3(4H)-one]	100	–
O=C1COc2cc(F)c(C(=O)N3CCC(COc4ccc(F)cc4-c4ccccc4)CC3)cc2N1 [Example 100, 7-fluoro-6-((4-(((5-fluorobiphenyl-2-yl)oxy)methyl)piperidin-1-yl)carbonyl)-2H-1,4-benzoxazin-3(4H)-one]	98	–
O=C1COc2cc(F)c(C(=O)N3CC(COc4ccc(F)cc4Cl)C3)cc2N1 [Example 77, 6-((3-((2-chloro-4-fluorophenoxy)methyl)azetidin-1-yl)carbonyl)-7-fluoro-2H-1,4-benzoxazin-3(4H)-one]	105	–
N#Cc1ccc(OCC2CCN(C(=O)c3ccc4c(c3)NC(=O)CO4)CC2)cc1 [Example 49, 4-((1-((3-oxo-3,4-dihydro-2H-1,4-benzoxazin-6-yl)carbonyl)piperidin-4-yl)methoxy)benzonitrile]	92	–
O=C1COc2cc(F)c(C(=O)N3CC(COc4ccc(Oc5ccccc5)cc4)C3)cc2N1 [Example 128, 7-fluoro-6-((3-((4-phenoxyphenoxy)methyl)azetidin-1-yl)carbonyl)-2H-1,4-benzoxazin-3(4H)-one]	93	–
Cc1ccc(OCC2CCN(C(=O)c3ccc4c(c3)NC(=O)CO4)CC2)c(Cl)c1 [Example 36, 6-((4-((2-chloro-4-methylphenoxy)methyl)piperdin-1-yl)carbonyl)-2H-1,4-benzoxazin-3(4H)-one]	104	–
C=C(C)c1ccc(OCC2CCN(C(=O)c3cc4c(cc3F)OCC(=O)N4)CC2)c(Cl)c1 [Example 82, 6-((4-((2-chloro-4-(prop-1-en-2-yl)phenoxy)methyl)piperidin-1-yl)carbonyl)-7-fluoro-2H-1,4-benzoxazin-3(4H)-one]	101	–
O=C1COc2cc(F)c(C(=O)N3CC(COc4ccc5scnc5c4)C3)cc2N1 [Example 104, 6-((3-((1,3-benzothiazol-5-yloxy)methyl)azetidin-1-yl)carbonyl)-7-fluoro-2H-1,4-benzoxazin-3(4H)-one]	100	–
CC(C)(C)c1ccc(OCC2CN(C(=O)c3cc4c(cc3F)OCC(=O)N4)C2)c(Cl)c1 [Example 118, 6-((3-((4-tert-butyl-2-chlorophenoxy)methyl)azetidin-1-yl)carbonyl)-7-fluoro-2H-1,4-benzoxazin-3(4H)-one]	99	–
CN1CC=C(c2cc(Cl)ccc2OCC2CN(C(=O)c3cc4c(cc3F)OCC(=O)N4)C2)CC1 [Example 212, 6-((3-((4-chloro-2-(1-methyl-1,2,3,6-tetrahydropyridin-4-yl)phenoxy)methyl)azetidin-1-yl)carbonyl)-7-fluoro-2H-1,4-benzoxazin-3(4H)-one]	94	–
Cc1ccc(OCC2CN(C(=O)c3cc4c(cc3F)OCC(=O)N4)C2)c(Cl)c1 [Example 117, 6-((3-((2-chloro-4-methylphenoxy)methyl)azetidin-1-yl)carbonyl)-7-fluoro-2H-1,4-benzoxazin-3(4H)-one]	102	–
O=C1COc2cc(F)c(C(=O)N3CC(COc4c(F)cccc4Cl)C3)cc2N1 [Example 136, 6-((3-((2-chloro-6-fluorophenoxy)methyl)azetidin-1-yl)carbonyl)-7-fluoro-2H-1,4-benzoxazin-3(4H)-one]	98	–
Cc1cc(F)ccc1OCC1CN(C(=O)c2cc3c(cc2F)OCC(=O)N3)C1 [Example 120, 7-fluoro-6-((3-((4-fluoro-2-methylphenoxy)methyl)azetidin-1-yl)carbonyl)-2H-1,4-benzoxazin-3(4H)-one]	101	–
O=C1COc2cc(F)c(C(=O)N3CC(COc4ccc5c(c4)CCO5)C3)cc2N1 [Example 155, 6-((3-((2,3-dihydro-1-benzofuran-5-yloxy)methyl)azetidin-1-yl)carbonyl)-7-fluoro-2H-1,4-benzoxazin-3(4H)-one]	101	–

The remaining lines, values ahead:

inhibition at 10 µM [%]	% inhibition (10 μM) (10 µM) [%]	Compound
100	–	O=C1COc2cc(F)c(C(=O)N3CC(OCc4cccc(F)c4)C3)cc2N1 [Example 331, 7-fluoro-6-((3-((3-fluorobenzyl)oxy)azetidin-1-yl)carbonyl)-2H-1,4-benzoxazin-3(4H)-one]
96	–	Cn1cc(-c2ccc(OCC3CN(C(=O)c4cc5c(cc4F)OCC(=O)N5)C3)c(F)c2)cn1 [Example 246, 7-fluoro-6-((3-((2-fluoro-4-(1-methyl-1H-pyrazol-4-yl)phenoxy)methyl)azetidin-1-yl)carbonyl)-2H-1,4-benzoxazin-3(4H)-one]
100	–	O=C1COc2cc(F)c(C(=O)N3CC(COc4ccc5ccncc5c4)C3)cc2N1 [Example 172, 7-fluoro-6-((3-((isoquinolin-7-yloxy)methyl)azetidin-1-yl)carbonyl)-2H-1,4-benzoxazin-3(4H)-one]
100	–	Cc1cc(-c2ccc(OCC3CN(C(=O)c4cc5c(cc4F)OCC(=O)N5)C3)c(F)c2)n(C)n1 [Example 259, 6-((3-((4-(1,3-dimethyl-1H-pyrazol-5-yl)-2-fluorophenoxy)methyl)azetidin-1-yl)carbonyl)-7-fluoro-2H-1,4-benzoxazin-3(4H)-one]
97	–	Cc1ccc(-c2ccc(OCC3CN(C(=O)c4cc5c(cc4F)OCC(=O)N5)C3)c(F)c2)cn1 [Example 263, 7-fluoro-6-((3-((2-fluoro-4-(6-methylpyridin-3-yl)phenoxy)methyl)azetidin-1-yl)carbonyl)-2H-1,4-benzoxazin-3(4H)-one]
101	–	Cc1ccc(COC2CN(C(=O)c3cc4c(cc3F)OCC(=O)N4)C2)c(F)c1 [Example 350, 7-fluoro-6-((3-((2-fluoro-4-methylbenzyl)oxy)azetidin-1-yl)carbonyl)-2H-1,4-benzoxazin-3(4H)-one]
98	–	O=C1COc2cc(F)c(C(=O)N3CC(OCc4ccc(F)cc4)C3)cc2N1 [Example 332, 7-fluoro-6-((3-((4-fluorobenzyl)oxy)azetidin-1-yl)carbonyl)-2H-1,4-benzoxazin-3(4H)-one]
102	–	Cc1cccc(OCC2CN(C(=O)c3cc4c(cc3F)OCC(=O)N4)C2)c1 [Example 162, 7-fluoro-6-((3-((3-methylphenoxy)methyl)azetidin-1-yl)carbonyl)-2H-1,4-benzoxazin-3(4H)-one]
98	–	O=C1COc2cc(F)c(C(=O)N3CC(COc4ccccc4C4CCCC4)C3)cc2N1 [Example 166, 6-((3-((2-cyclopentylphenoxy)methyl)azetidin-1-yl)carbonyl)-7-fluoro-2H-1,4-benzoxazin-3(4H)-one]
103	–	O=C1COc2cc(F)c(C(=O)N3CC(COc4ccc(F)c(C(F)(F)F)c4)C3)cc2N1 [Example 278, 7-fluoro-6-((3-((4-fluoro-3-(trifluoromethyl)phenoxy)methyl)azetidin-1-yl)carbonyl)-2H-1,4-benzoxazin-3(4H)-one]
–	101	CC(Oc1cc(F)ccc1F)C1CN(C(=O)c2cc3c(cc2F)OCC(=O)N3)C1 (centres unmarked) [Example 319, 6-((3-(1-(2,5-difluorophenoxy)ethyl)azetidin-1-yl)carbonyl)-7-fluoro-2H-1,4-benzoxazin-3(4H)-one]
88	–	O=C1COc2cc(F)c(C(=O)N3CC(COc4ccc(-c5ccc(Cl)cn5)cc4F)C3)cc2N1 [Example 229, 6-((3-((4-(5-chloropyridin-2-yl)-2-fluorophenoxy)methyl)azetidin-1-yl)carbonyl)-7-fluoro-2H-1,4-benzoxazin-3(4H)-one]
100	–	O=C1COc2cc(F)c(C(=O)N3CC(COc4ccc5cn[nH]c5c4)C3)cc2N1 [Example 157, 7-fluoro-6-((3-((1H-indazol-6-yloxy)methyl)azetidin-1-yl)carbonyl)-2H-1,4-benzoxazin-3(4H)-one]
100	–	Cc1cccnc1-c1ccc(OCC2CN(C(=O)c3cc4c(cc3F)OCC(=O)N4)C2)c(F)c1 [Example 231, 7-fluoro-6-((3-((2-fluoro-4-(3-methylpyridin-2-yl)phenoxy)methyl)azetidin-1-yl)carbonyl)-2H-1,4-benzoxazin-3(4H)-one]
99	–	Cc1ccncc1-c1ccc(OCC2CN(C(=O)c3cc4c(cc3F)OCC(=O)N4)C2)c(F)c1 [Example 237, 7-fluoro-6-((3-((2-fluoro-4-(4-methylpyridin-3-yl)phenoxy)methyl)azetidin-1-yl)carbonyl)-2H-1,4-benzoxazin-3(4H)-one]
102	–	CC(Oc1ccc(F)cc1Cl)C1CCN(C(=O)c2cc3c(cc2F)OCC(=O)N3)CC1 (centres unmarked) [Example 293, 6-((4-(1-(2-chloro-4-fluorophenoxy)ethyl)piperidin-1-yl)carbonyl)-7-fluoro-2H-1,4-benzoxazin-3(4H)-one]
102	–	N#Cc1ccc(COC2CN(C(=O)c3cc4c(cc3F)OCC(=O)N4)C2)cc1 [Example 335, 4-(((1-((7-fluoro-3-oxo-3,4-dihydro-2H-1,4-benzoxazin-6-yl)carbonyl)azetidin-3-yl)oxy)methyl) benzonitrile]
100	–	Cc1nc(F)ccc1-c1ccc(OCC2CN(C(=O)c3cc4c(cc3F)OCC(=O)N4)C2)c(F)c1 [Example 290, 7-fluoro-6-((3-((2-fluoro-4-(6-fluoro-2-methylpyridin-3-yl)phenoxy)methyl)azetidin-1-yl)carbonyl)-2H-1,4-benzoxazin-3(4H)-one]
